In PubChem BioAssay AID1963986 (Molecular Pharmacology Branch, DTP, NCI, 2024):

Test system: 171881-019-R-J1-PDC tumor spheroid viability
Test: Anticancer human tumor 171881-019-R-J1-PDC patient-derived invasive breast carcinoma cell line growth inhibition [PI3K]
Settings: spheroids with HUVEC and MSC; for IC50: curve of first compound; for viability, T/C: stronger effect = lower value
How it was run: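 Targeted small molecules plus PI3K inhibitors, half-log dose series from Cmax (default top 10 microM), were applied to heterotypic spheroids of cancer cells with HUVEC and MSCs. Viability indicated growth inhibition.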

[1] = second compound 0.0316 µM, first compound 0.0316 µM
[2] = second compound 0.0316 µM, first compound 0.1 µM
[3] = second compound 0.0316 µM, first compound 0.316 µM
[4] = second compound 0.0316 µM, first compound 1 µM
[5] = second compound 0.0316 µM, first compound 3.16 µM
[6] = second compound 0.0316 µM, first compound 10 µM
[7] = second compound 0.1 µM, first compound 0.0316 µM
[8] = second compound 0.1 µM, first compound 0.1 µM
[9] = second compound 0.1 µM, first compound 0.316 µM
[10] = second compound 0.1 µM, first compound 1 µM
[11] = second compound 0.1 µM, first compound 3.16 µM
[12] = second compound 0.1 µM, first compound 10 µM
[13] = second compound 0.316 µM, first compound 0.0316 µM
[14] = second compound 0.316 µM, first compound 0.1 µM
[15] = second compound 0.316 µM, first compound 0.316 µM
[16] = second compound 0.316 µM, first compound 1 µM
[17] = second compound 0.316 µM, first compound 3.16 µM
[18] = second compound 0.316 µM, first compound 10 µM
[19] = second compound 1 µM, first compound 0.0316 µM
[20] = second compound 1 µM, first compound 0.1 µM
[21] = second compound 1 µM, first compound 0.316 µM
[22] = second compound 1 µM, first compound 1 µM
[23] = second compound 1 µM, first compound 3.16 µM
[24] = second compound 1 µM, first compound 10 µM
[25] = second compound 3.16 µM, first compound 0.0316 µM
[26] = second compound 3.16 µM, first compound 0.1 µM
[27] = second compound 3.16 µM, first compound 0.316 µM
[28] = second compound 3.16 µM, first compound 1 µM
[29] = second compound 3.16 µM, first compound 3.16 µM
[30] = second compound 3.16 µM, first compound 10 µM
[31] = second compound 10 µM, first compound 0.0316 µM
[32] = second compound 10 µM, first compound 0.1 µM
[33] = second compound 10 µM, first compound 0.316 µM
[34] = second compound 10 µM, first compound 1 µM
[35] = second compound 10 µM, first compound 3.16 µM
[36] = second compound 10 µM, first compound 10 µM
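Note: spheroids exposed to compound for 7 days before viability read.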
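Throughout, for viability, T/C: 100% = DMSO vehicle-treated spheroids.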

For `C=CC(=O)N1CCN(c2nc(=O)n(-c3c(C)ccnc3C(C)C)c3nc(-c4c(O)cccc4F)c(F)cc23)C(C)C1` (centres undefined) + Cc1nc(NC(=O)N2CCCC2C(N)=O)sc1-c1ccnc(C(C)(C)C(F)(F)F)c1, which IC50 (second compound 0.0316 µM) is on record?
Its IC50 is 9730 nM.

What about the IC50 (second compound 0.1 µM) of the same molecule?
Its IC50 is 9440 nM.

And the IC50 (second compound 0.316 µM)?
Its IC50 is 2350 nM.

What about the IC50 (second compound 1 µM) of the same molecule?
The IC50 was less than 31.6 nM.

What about the IC50 (second compound 3.16 µM) of the same molecule?
The IC50 was less than 31.6 nM.

And the IC50 (second compound 10 µM)?
Its IC50 is less than 31.6 nM.

And the viability, T/C [1]?
Its viability, T/C is 92.6%.

And the viability, T/C [2]?
Its viability, T/C is 83.4%.

What about the viability, T/C [3] of the same molecule?
Its viability, T/C is 98.4%.

And the viability, T/C [4]?
Its viability, T/C is 92%.

And the viability, T/C [5]?
The viability, T/C was 79.6%.

What about the viability, T/C [6] of the same molecule?
The viability, T/C was 48.8%.

What about the viability, T/C [7] of the same molecule?
The viability, T/C was 84.1%.

And the viability, T/C [8]?
The viability, T/C was 73.2%.

And the viability, T/C [9]?
The viability, T/C was 86.3%.

And the viability, T/C [10]?
Its viability, T/C is 87.4%.

And the viability, T/C [11]?
The viability, T/C was 86.9%.

And the viability, T/C [12]?
The viability, T/C was 48.2%.

What about the viability, T/C [13] of the same molecule?
Its viability, T/C is 55%.

What about the viability, T/C [14] of the same molecule?
The viability, T/C was 50.9%.

What about the viability, T/C [15] of the same molecule?
The viability, T/C was 56.8%.

What about the viability, T/C [16] of the same molecule?
The viability, T/C was 60.4%.

What about the viability, T/C [17] of the same molecule?
The viability, T/C was 57.9%.

What about the viability, T/C [18] of the same molecule?
Its viability, T/C is 34.7%.

And the viability, T/C [19]?
The viability, T/C was 29.8%.

And the viability, T/C [20]?
Its viability, T/C is 32.3%.

And the viability, T/C [21]?
Its viability, T/C is 32.1%.

What about the viability, T/C [22] of the same molecule?
The viability, T/C was 32.4%.

What about the viability, T/C [23] of the same molecule?
Its viability, T/C is 33%.

And the viability, T/C [24]?
The viability, T/C was 19.4%.

And the viability, T/C [25]?
The viability, T/C was 14.7%.

What about the viability, T/C [26] of the same molecule?
The viability, T/C was 15.2%.

What about the viability, T/C [27] of the same molecule?
Its viability, T/C is 14.5%.

What about the viability, T/C [28] of the same molecule?
Its viability, T/C is 15.2%.

And the viability, T/C [29]?
Its viability, T/C is 16.8%.

And the viability, T/C [30]?
The viability, T/C was 8.95%.

What about the viability, T/C [31] of the same molecule?
Its viability, T/C is 3.67%.

What about the viability, T/C [32] of the same molecule?
The viability, T/C was 3.63%.

And the viability, T/C [33]?
The viability, T/C was 4.33%.

What about the viability, T/C [34] of the same molecule?
The viability, T/C was 4.28%.

And the viability, T/C [35]?
Its viability, T/C is 4.51%.

And the viability, T/C [36]?
The viability, T/C was 2.34%.

`Cn1nccc1Nc1nccc(-c2ccn(C(CO)c3ccc(Cl)c(F)c3)c(=O)c2)n1` (centres undefined) + Cc1nc(NC(=O)N2CCCC2C(N)=O)sc1-c1ccnc(C(C)(C)C(F)(F)F)c1 was tested. Which IC50 (second compound 0.0316 µM) did it give?
The IC50 was 297 nM.

What about the IC50 (second compound 0.1 µM) of the same molecule?
Its IC50 is 140 nM.

And the IC50 (second compound 0.316 µM)?
Its IC50 is 34.9 nM.

What about the IC50 (second compound 1 µM) of the same molecule?
The IC50 was less than 31.6 nM.

What about the IC50 (second compound 3.16 µM) of the same molecule?
Its IC50 is less than 31.6 nM.

And the IC50 (second compound 10 µM)?
The IC50 was less than 31.6 nM.

And the viability, T/C [1]?
The viability, T/C was 89.8%.

And the viability, T/C [2]?
The viability, T/C was 73.2%.

What about the viability, T/C [3] of the same molecule?
The viability, T/C was 47.2%.

And the viability, T/C [4]?
Its viability, T/C is 32.1%.

And the viability, T/C [5]?
Its viability, T/C is 23.1%.

And the viability, T/C [6]?
Its viability, T/C is 18.4%.

And the viability, T/C [7]?
Its viability, T/C is 81%.

What about the viability, T/C [8] of the same molecule?
Its viability, T/C is 55.8%.

What about the viability, T/C [9] of the same molecule?
The viability, T/C was 36.2%.

And the viability, T/C [10]?
Its viability, T/C is 24%.

What about the viability, T/C [11] of the same molecule?
The viability, T/C was 18.5%.

And the viability, T/C [12]?
Its viability, T/C is 16.2%.

And the viability, T/C [13]?
The viability, T/C was 51.1%.

What about the viability, T/C [14] of the same molecule?
Its viability, T/C is 37.8%.

What about the viability, T/C [15] of the same molecule?
Its viability, T/C is 22.6%.

What about the viability, T/C [16] of the same molecule?
The viability, T/C was 14.6%.

And the viability, T/C [17]?
Its viability, T/C is 10.9%.

What about the viability, T/C [18] of the same molecule?
Its viability, T/C is 8.35%.

And the viability, T/C [19]?
The viability, T/C was 27.4%.

What about the viability, T/C [20] of the same molecule?
The viability, T/C was 20%.

What about the viability, T/C [21] of the same molecule?
The viability, T/C was 12.5%.

And the viability, T/C [22]?
The viability, T/C was 7.16%.

What about the viability, T/C [23] of the same molecule?
The viability, T/C was 5.6%.

What about the viability, T/C [24] of the same molecule?
Its viability, T/C is 4.92%.

What about the viability, T/C [25] of the same molecule?
The viability, T/C was 12.3%.

And the viability, T/C [26]?
Its viability, T/C is 8.08%.

And the viability, T/C [27]?
The viability, T/C was 4.7%.

And the viability, T/C [28]?
Its viability, T/C is 3.17%.

And the viability, T/C [29]?
Its viability, T/C is 2.1%.

What about the viability, T/C [30] of the same molecule?
Its viability, T/C is 1.72%.

And the viability, T/C [31]?
Its viability, T/C is 2.73%.

What about the viability, T/C [32] of the same molecule?
The viability, T/C was 2.2%.

What about the viability, T/C [33] of the same molecule?
The viability, T/C was 1.3%.

And the viability, T/C [34]?
Its viability, T/C is 0.88%.

And the viability, T/C [35]?
Its viability, T/C is 0.68%.

And the viability, T/C [36]?
The viability, T/C was 0.53%.
